Data as given in patent publication US20120141589A1, “PARTICLES FOR DRUG DELIVERY AND OTHER APPLICATIONS” (BASF SE, priority 2010, published 2012).

Key:
[1] = Dissolution test of drug/CaCO3 hybrid particles against raw drug crystals, flow-through UV-Vis; assay type: physicochemical; conditions: drug in CaCO3 hybrid particles; 10 mM SDS, pH 1.5 (HCl), 37° C., sink conditions, monitored at 290 nm
Description: In this example, the dissolution rates of the particles were determined, and compared to compared with raw, micron-sized drug crystals.
During the dissolution experiments, for convenience, dissolution media was placed in a dissolution chamber which is typically used for pressure dialysis; no pressure was applied for the measurements described here. The vessel used in these experiments contained a built-in stir bar and the dissolution media was stirred at a rate of approximately one revolution per second. Dissolution media was drawn from the bottom of the vessel, through a 0.1 micron PTFE filter. The media vessel was connected to a flow-through UV-Vis spectrophotometer cell via tubing and the liquid was driven using a peristaltic pump. A flow rate of 8 mL per second was used. The output of the flow-through cell was connected back to the dissolution chamber, so that the flow formed a closed loop; in this manner the volume of the dissolution media was conserved.
All water used was distilled and de-ionized. […] The raw drug powder was not ground. […] All dissolution media was kept at 37° C.

[2] = no UV-vis signal detectable in pure water or acidic water with added HCl
Description: All water used was distilled and de-ionized. These drugs were monitored at a wavelength of 290 nm. Templates were prepared for dissolution testing by grinding pellets in a mortar and pestle into a fine powder. The raw drug powder was not ground. All tests were performed under sink conditions, where the total amount of drug added is less than one third of the saturation concentration. All dissolution media was kept at 37° C.

Row | SMILES | dissolution rate when incorporated into a hybrid structure, compared with raw, micron-sized drug crystals [1] | solubility in water [2]
1 | Clc1ccccc1C(c1ccccc1)(c1ccccc1)n1ccnc1 [chlotrimazole] | enhanced dissolution rates | poorly soluble in water
2 | C[C@]12CC[C@@H]3c4ccc(O)cc4CC[C@H]3[C@@H]1CC[C@@H]2O [estradiol, 17-beta estradiol] | enhanced dissolution rates | –
